Assay results as given in publication PMC4014597 (PLoS ONE, 2014).

Columns and labels:
[1] = tested on: CMV-luc construct in KG-1 cells; assay: CMV-luc assay (luciferase re-expression from methylated CMV promoter); assay type: cell-based; settings: 24 h
human DNMT1 (hDNMT1) = molecular target: T1, human DNMT1 (hDNMT1) (Homo sapiens, UniProt P26358); assay: DNMT1 assay (radioactive Flashplate methylation assay); assay type: biochemical; settings: for inhibition at 100 µM: 100 µM compound, read-out: % inhibition ± SD hDNMT1
T1 construct: His; made in house
Experimental: His-DNMT1 (182 kDa, human) was cloned, expressed and purified as described by Lee et al.. The DNMT1 assay was performed according to Gros et al.. Briefly, the reaction was started by addition of 90 nM of DNMT1 on a mix containing the tested compound (up to 1% DMSO), 1 µM of a AdoMet/[methyl-^3H]-AdoMet mix in a ratio of 3-to-1 (isotopic dilution 1*:3) and 0.3 µM of biotinylated DNA duplex in 10 µL final volume. The reaction was incubated at 37°C for 2 h in reaction buffer (20 mM HEPES pH 7.2, 1 mM EDTA, 50 mM KCl, 25 µg/mL BSA). 8 µL are then transferred into a streptavidin-coated Flashplate PLUS (PerkinElmer) containing 190 µL of 20 µM AdoHcy (Sigma-Aldrich) in 50 mM Tris-HCl pH 7.4. The Flashplate was agitated at room temperature for 1 h, washed three times with 200 µL of 0.05% Tween-20 in 50 mM Tris-HCl pH 7.4 and read in 200 µL of 50 mM Tris-HCl pH 7.4 on TopCount NXT (PerkinElmer). Percentages of inhibition were calculated with the same formula as in DNMT3A assay.

RAJI cells = assay: Cell viability by trypan blue exclusion, RAJI; assay type: cell-based, human; settings: 48 h; for IC50: Homo sapiens, Raji, read-out: IC50 (mean ± SD) cell viability RAJI
Experimental: U-937 and RAJI cell lines were purchased from Deutsche Sammlung für Mikroorganismen und Zellkulturen (DSZM). Cells were maintained in RPMI 1640 (Lonza) supplemented with 10% fetal calf serum (Lonza) and 1% antibiotic–antimycotic (Lonza). Cells were treated with compounds at the indicated concentrations in exponential growth phase. Proliferation and viability were assessed by trypan blue exclusion analysis at the indicated time points.

T1 sequence (P26358 whole entry): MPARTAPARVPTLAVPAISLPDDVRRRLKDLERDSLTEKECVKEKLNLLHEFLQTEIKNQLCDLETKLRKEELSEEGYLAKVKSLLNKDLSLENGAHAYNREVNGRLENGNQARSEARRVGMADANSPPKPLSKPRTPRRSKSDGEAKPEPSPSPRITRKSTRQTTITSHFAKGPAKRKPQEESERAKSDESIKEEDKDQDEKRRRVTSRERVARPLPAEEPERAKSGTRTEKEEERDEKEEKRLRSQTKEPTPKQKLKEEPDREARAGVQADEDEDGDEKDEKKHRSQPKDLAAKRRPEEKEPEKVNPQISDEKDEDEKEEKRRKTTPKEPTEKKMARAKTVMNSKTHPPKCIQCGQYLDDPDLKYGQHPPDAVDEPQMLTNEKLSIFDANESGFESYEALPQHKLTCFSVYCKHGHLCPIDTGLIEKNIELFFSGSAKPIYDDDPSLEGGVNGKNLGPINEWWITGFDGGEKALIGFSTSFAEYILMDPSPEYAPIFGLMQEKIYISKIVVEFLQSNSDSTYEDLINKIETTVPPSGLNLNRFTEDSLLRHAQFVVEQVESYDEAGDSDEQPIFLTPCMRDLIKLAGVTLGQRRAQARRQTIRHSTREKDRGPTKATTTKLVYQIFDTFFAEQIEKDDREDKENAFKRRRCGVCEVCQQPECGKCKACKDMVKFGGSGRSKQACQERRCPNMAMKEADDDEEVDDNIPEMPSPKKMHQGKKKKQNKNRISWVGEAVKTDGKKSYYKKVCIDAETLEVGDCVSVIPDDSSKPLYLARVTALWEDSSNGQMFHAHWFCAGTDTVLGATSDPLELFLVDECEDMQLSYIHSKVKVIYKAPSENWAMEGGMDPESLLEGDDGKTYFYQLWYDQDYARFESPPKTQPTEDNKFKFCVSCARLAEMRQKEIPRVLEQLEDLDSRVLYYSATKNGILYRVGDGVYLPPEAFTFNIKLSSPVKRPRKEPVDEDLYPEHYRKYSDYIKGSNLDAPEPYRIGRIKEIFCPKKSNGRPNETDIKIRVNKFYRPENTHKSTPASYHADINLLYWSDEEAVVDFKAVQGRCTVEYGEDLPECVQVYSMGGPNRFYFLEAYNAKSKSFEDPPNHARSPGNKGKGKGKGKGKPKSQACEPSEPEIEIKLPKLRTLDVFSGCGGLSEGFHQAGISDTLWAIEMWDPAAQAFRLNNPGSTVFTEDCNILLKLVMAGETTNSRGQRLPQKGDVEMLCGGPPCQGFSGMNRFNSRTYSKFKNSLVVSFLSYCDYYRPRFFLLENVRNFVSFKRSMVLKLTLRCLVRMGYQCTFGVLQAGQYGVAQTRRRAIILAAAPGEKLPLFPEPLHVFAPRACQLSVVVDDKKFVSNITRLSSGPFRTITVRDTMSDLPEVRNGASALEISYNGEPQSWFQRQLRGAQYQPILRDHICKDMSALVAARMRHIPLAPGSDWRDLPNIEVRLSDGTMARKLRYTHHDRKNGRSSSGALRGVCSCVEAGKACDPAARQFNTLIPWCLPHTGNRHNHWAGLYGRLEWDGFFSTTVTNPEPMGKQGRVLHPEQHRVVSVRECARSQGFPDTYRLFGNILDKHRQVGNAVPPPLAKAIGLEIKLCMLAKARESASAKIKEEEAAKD

Compound	fold-induction of the luciferase signal (CMV-luc) ([1]; 5 µM)	fold-induction of the luciferase signal (CMV-luc) ([1]; 25 µM)	fold-induction of the luciferase signal (CMV-luc) ([1]; 50 µM)	inhibition at 100 µM (human DNMT1 (hDNMT1)) [%]	IC50 (RAJI cells) [µM]	antiproliferative potency compared to SGI-1027, fold more potent (RAJI cells; RAJI) [fold]	fold-induction of the luciferase signal (CMV-luc) ([1]; 10 µM) [fold]	inhibition at 10 µM (human DNMT1 (hDNMT1); 10 µM compound) [%]	inhibition at 32 µM (human DNMT1 (hDNMT1); 32 µM compound) [%]	EC50 (human DNMT1 (hDNMT1); means of at least three experiments) [µM]	melting point [°C]
c1ccc(CN2CCC(Nc3nc(N4CCN(c5ccccc5)CC4)nc4ccccc34)CC2)cc1 [Compound 14, N-(1-benzylpiperidin-4-yl)-2-(4-phenylpiperazin-1-yl)quinazolin-4-amine]	2/3	7.5 fold	ineffective	0	3.4 ± 0.3	3					
CN1CCCN(c2nc(NC3CCN(Cc4ccccc4)CC3)c3ccccc3n2)CC1 [Compound 4]		12.5 fold	ineffective	0	21.1 ± 2.5		2.8				
c1ccc(CN2CCC(Nc3nc(N4CCN(c5ccccn5)CC4)nc4ccccc34)CC2)cc1 [Compound 13]	2/3	not effective		0	19.7 ± 1.4						
c1ccc(CN2CCC(Nc3nc(N4CCCC4)nc4ccccc34)CC2)cc1 [Compound 10, N-(1-benzylpiperidin-4-yl)-2-(pyrrolidin-1-yl)quinazolin-4-amine]	2/3	not effective		47 ± 1.7	18.7 ± 4.3			6.5	18	144 ± 35	112 to 115
